Results on seven compounds are retold here after patent US11248022B2, “Glypican-3 peptide reagents and methods” (THE REGENTS OF THE UNIVERSITY OF MICHIGAN, priority 2017, dated 2022).

Like-named read-outs stand apart in the source and are kept apart here. Ends that are not written are not given here.

Data set [1] relates to GPC3 positive tumor (from Hep3B cells). Put plainly: In vivo whole body fluorescent imaging of HCC xenograft.
Method: Mice bearing HCC xenograft tumor (arrowheads) were i.v. injected with 250 μL of 300 μM near NIR GPC3 targeting peptide ALL*-Cy5.5, scrambled control peptide QLE*-Cy5.5 and unlabeled Cy5.5 free dye alone. ALL*-Cy5.5 was also injected in mice bearing GPC3 negative tumor (from SK Hep-1 cells, arrows) as control of EPR effect. Pre-injection imaging confirmed no autofluorescence was present.
The test system of data set [2] is advanced HCC. Conditions: cited from earlier work.
Data set [3] concerns the target purified recombinant GPC3 core protein (Homo sapiens, UniProt P51654). Put plainly: Phage display biopanning. In kind it is binding. Conditions: four rounds of biopanning. As for the experimental part:
A panel of candidate peptides that are specific to GPC3 was identified using phage display technology. Peptide selection was performed using a library of M13 bacteriophage that express ˜10^9 unique clones of each individual sequence [Zhou et al., Clin Transl Gastroenterol, 6:e101 (2015); Joshi et al., Bioconjug Chem, 27:481-494 (2016); Rabinsky et al., Cell Mol Gastroenterol Hepatol, 2:222-237 (2016)]. The library was biopanned against purified recombinant GPC3 core protein immobilized in a 6-well plate. Four rounds of biopanning were performed using decreasing quantity (100, 80, 60, and 40 μg) of GPC3 core protein in successive rounds to increase binding specificity. The bound phages were eluted, amplified, precipitated and tittered using standard protocols, and the enriched clones from the candidate pool were sequenced to identify the lead candidates: ALLANHEELF (SEQ ID NO: 2), GLHTSATNLYLH (SEQ ID NO: 3), SGVYKVAYDWQH (SEQ ID NO: 4) and VGVESCASRCNN (SEQ ID NO: 5).

The test system of data set [4] is Hep3B cells. Put plainly: Competition for peptide binding on Hep3B cells. Type of data set: cell-based, human. On the procedure: The specificity of peptide reagent binding was also validated by competition assay. Hep3B cells were grown on cover glass and incubated first with unlabeled peptides over a range of concentrations (0-500 μM), and then with ALL*-Cy5.5 peptide. The fluorescence intensities were measured using confocal microscopy. […] Differences in fluorescence intensity between the ALL*-Cy5.5 peptide reagent and control are significant at concentrations of 50 μM and greater.

Data set [5] relates to SK-Hep1 cells. Put plainly: Confocal microscopy of peptide binding to SK-Hep1 cells. Type of data set: cell-based, human. As for the experimental part: (§1) FIGS. 6-2A-Q show validation of specific peptide binding to cells in vitro. […] The Hep3B versus SK-Hep1 difference was also larger for antibody than QLE (P=2.3×10^−8, 6.0-fold larger). Intensity was measured with 6 replicates per condition and fitted to an ANOVA model with terms for 9 means to log-transformed data. […] We further validated specific peptide binding to GPC3 using siRNA knockdown. […] Q) Quantified fluorescence intensities. The siCL vs siGPC3 difference was 7.4 times bigger for ALL than the same difference for QLE (P=7.8×10^−5), and the difference for antibody was 8.9 times bigger than for QLE (P=2.5×10^−5), by ANOVA on log-transformed data. Results are an average of 6 images collected independently.
(§2) On confocal microscopy, it was shown that ALL*-Cy5.5 binds to the surface (arrows) of cells with different levels of GPC3 expression. […] GPC3 is highly overexpressed in Hep3B cell cytosol and membrane while moderately expressed in HepG2 cells. No GPC3 expression is observed in SK-Hep1 cells. Tubulin serves as loading control for either cytosol or membrane fractions loaded.

Data set [6] concerns Hep3B human HCC cells. Put plainly: Confocal microscopy of peptide binding to Hep3B cells. In kind it is cell-based. Conditions: Hep3B cells, confocal microscopy. On the procedure:
as §1, §2

Data set [7] relates to SK-Hep1 xenograft tumors. Put plainly: Immunostaining on GPC3 negative SK-Hep1 xenograft sections. Set-up: species or system mice. To be noted: no GPC3 expression. The source says:
FIGS. 18A-D show immunostaining on GPC3 negative HCC xenograft tumor.
(§3) The specimens were also sectioned for collection of confocal images to perform microscopic validation of peptide binding ex vivo.

Data set [8] has as its target T1, GPC3 (Homo sapiens, UniProt P51654).
T1 construct: endogenous in cells; host or cells: Hep3B human HCC cells (siCL control vs siGPC3 knockdown); also HepG2; SK-Hep1 as GPC3-negative control
Put plainly: siRNA knockdown of GPC3 in Hep3B cells, confocal fluorescence. Type of data set: cell-based. To be noted: Hep3B cells transfected with non-targeting siRNA (siCL). On the procedure: as §1
The specificity of lead candidate peptide reagent binding was validated by siRNA knockdown of GPC3 in human HCC cells. The cells were transfected with siRNA to knockdown cell surface expression of GPC3. […] These cells were transfected with non-targeting siRNA (siCL) for use as control. […] FIG. 6-1D,E show ˜4-fold reduction in fluorescence intensity with both the peptide reagent and anti-GPC3 antibody, respectively, for Hep3B cells transfected with siRNA (siGPC3) to knock down GPC3 expression. […] FIG. 6-2M, N, O and P show the same result as original FIG. 6-1A, B, D and E.

For data set [9], the system named is HepG2 human HCC cells. Put plainly: Confocal microscopy of peptide binding to HepG2 cells. In kind it is cell-based. Conditions: HepG2 cells, confocal microscopy. On the procedure:
as §1, §2

Data set [10] concerns Hep3B xenograft. Put plainly: In vivo NIR laparoscopic imaging of HCC xenograft tumors. Set-up: species or system mice. Conditions: NIR laparoscope, 2 hours after i.v. injection, n=8. As for the experimental part: Human HCC cells Hep3B and SK-Hep1 were cultured in Eagle's Minimum Essential Medium (EMEM) at 37° C. in 5% CO2, and supplemented with 10% fetal bovine serum (FBS) and 1% penicillin/streptomycin. Western blotting was performed to validate expression level of GPC3. Cells were diluted in growth factor reduced (GFR) Matrigel Matrix (Corning), and injected into one flank of female (to avoid male dominance within a cage) nude athymic mice (nu/nu, Jackson Laboratory) at 4 to 6 weeks of age with weight between 20 to 25 grams. ˜5×10^6 cells were implanted per mouse.
A standard surgical laparoscope (#49003 AA, HOPKINS® II Straight Forward Telescope 0°, Karl Storz) that is ˜10 mm in diameter and has a 31 cm length rigid sheath was adapted to collect reflectance and fluorescence concurrently. Nude mice with human HCC xenograft 2 weeks post implantation were tail vein injected with 200 μL 300 μM GPC3 peptide ALL*-Cy5.5. During imaging, the mice were anesthetized with inhaled isoflurane. We first used laparoscope with white light illumination to exam the xenograft. Laparoscopic images were taken two hours post injection in both fluorescence and reflection mode simultaneously with excitation solid state diode laser (660-S, Toptica Photonics) to deliver excitation at λex=660 nm into the fiber optic light guide. Images were collected at 5 frames/sec with a laser power of 1.2 mW. Hoechst 33342 (H1399, Life Technologies) at a dose of 10 mg/kg diluted in 200 μL of PBS was delivered intravenously via a tail vein injection to stain the cell nuclei 30 minutes before sacrificing the mouse. Xenograft tumors were resected and confocal fluorescence images were collected with Cy5.5 and DAPI filters 50 μm beneath the surface using a confocal microscope (Leica SPSX Upright 2-Photon Confocal Microscope). Following imaging, resected xenografts were fixed and formalin embedded for immunohistochemistry and H&E staining as described previously.
Fluorescence images of mouse HCC xenograft taken at 2 hrs post peptide injection were registered with corresponding reflectance images taken simultaneously. The fluorescence intensity of each pixel in the image was divided by intensity of corresponding pixel in the reflectance image in order to account for the difference in distance between each pixel and the laser source. A heat map image was generated from the resulting ratios at each pixel. Image segmentation was performed automatically by custom Matlab (Mathworks) software program using Ostu's Method [Otsu, Automatica, 11(285-296): 23-27 (1975)]. Target to background ratio of each processed image was calculated by dividing the average intensity of pixels inside the segmented tumor and that of those within 30 pixels outside of segmentation outline.

In data set [11] the test system is HCC xenograft tumor overexpressing GPC3. Put plainly: In vivo handheld dual axes confocal endomicroscope imaging. Details: species or system mice. On the procedure:
GPC3 expression from human HCC xenograft tumors was evaluated in real time by collecting optical sections in vivo using a handheld 5.5 mm diameter dual axes confocal endomicroscope. A solid-state diode laser (300 mW, CNI Laser Inc.) provided illumination at λex=671 nm. A parabolic mirror focused the illumination and collection beams to overlap below the tissue surface with lateral and axial resolution of 2 and 5 μm, respectively. A compact, 3D monolithic scanner located in the distal tip provided large vertical displacements and wide angular deflections to produce images in the vertical (XZ) and horizontal (XY) planes with a FOV of 1000×430 and 1000×1000 μm^2, respectively. NIR fluorescence is collected and passes through a band pass filter (FF01-716/40-25, Semrock) that transmits from 696-736 nm with >93% efficiency for detection with a photomultiplier tube (PMT, H7422PA-40, Hamamatsu) detector. The peptides were injected via the tail vain, and dissected away the skin overlying the tumor to gain access. The distal tip of the endomicroscope was placed in contact with the tumor using a drop of saline to couple the light. Laser power <2 mW on the tissue was used to avoid photobleaching. NIR fluorescence images were collected at 5 frames per sec. 3D volumetric images were reconstructed from a series of images collected in the vertical plane using Amira software (ver 5.4.3, FEI Corporation).
The probe was small enough to be comfortably held in the surgeon's hand during surgery, FIG. 12A, for in vivo imaging of biomarker expression. Its diameter was 5.5 mm and delivered 671 nm near-infrared laser at 2 mW. Mouse carrying HCC xenograft tumor overexpressing GPC3 was first injected with 250 μL 300 μM ALL*-Cy5.5 peptide intravenously and after 2 hours the probe was held in contact with exposed subcutaneous tumor to acquire in vivo peptide binding images, FIG. 12B. Images were collected in either the vertical or horizontal plane with 430 μm depth or 1000×1000 μm^2 area, respectively, at 5 frames per second. With measured lateral resolution of 2.49 μm and axial resolution of 4.98 μm, each peptide stained cell can be clearly seen (arrows). […] Strong uptake (arrows) of ALL*-Cy5.5 in tumor was captured on optical sections collected in the horizontal (1000×1000 μm^2, Video 1) FIG. 12C and vertical (1000×430 μm^2, Video 2) FIG. 12D planes, respectively. A series of vertical cross-section images were reconstructed into 3D MIP volume (Video 3), FIG. 12E.

The test system of data set [12] is Hep3B xenograft tumors. Put plainly: Ex vivo confocal validation on Hep3B xenograft sections and normal liver. Conditions: normal mouse liver sections. Set-up: species or system mice.
From the text: as §3

T1 sequence (P51654 25-554): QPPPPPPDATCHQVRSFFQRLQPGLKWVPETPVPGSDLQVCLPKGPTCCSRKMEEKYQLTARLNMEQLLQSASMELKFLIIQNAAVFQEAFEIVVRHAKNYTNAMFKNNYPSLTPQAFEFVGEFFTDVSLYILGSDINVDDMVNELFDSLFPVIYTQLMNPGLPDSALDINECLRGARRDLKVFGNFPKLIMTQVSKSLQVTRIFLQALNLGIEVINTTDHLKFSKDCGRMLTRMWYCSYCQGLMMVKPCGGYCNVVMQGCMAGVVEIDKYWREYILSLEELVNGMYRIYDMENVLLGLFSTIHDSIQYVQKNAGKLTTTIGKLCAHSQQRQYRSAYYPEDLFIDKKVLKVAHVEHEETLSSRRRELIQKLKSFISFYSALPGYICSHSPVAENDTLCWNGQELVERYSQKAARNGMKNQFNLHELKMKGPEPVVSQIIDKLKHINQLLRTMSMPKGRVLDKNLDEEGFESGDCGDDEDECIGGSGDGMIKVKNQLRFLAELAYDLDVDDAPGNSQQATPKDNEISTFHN
purified recombinant GPC3 core protein, sequence (P51654 25-554): as above

Consider `CCN1\C(=C/C=C/C=C/C2=[N+](CCCCCC(=O)O)c3ccc4c(S(=O)(=O)O)cc(S(=O)(=O)O)cc4c3C2(C)C)C(C)(C)c2c1ccc1c(S(=O)(=O)[O-])cc(S(=O)(=O)O)cc21` [free Cy5.5 dye, reference compound], for which, in data set [1] (i.v. injection, whole-body NIR imaging), the “time of peak uptake/signal post injection” value was 0.5 h.

For `CNC(=O)c1cc(Oc2ccc(NC(=O)Nc3ccc(Cl)c(C(F)(F)F)c3)cc2)ccn1` [sorafenib, Sorafenib], the survival duration in data set [2] (Asian patients) is recorded as 6.5 months; in data set [2] (Caucasian patients) it was 7.9 months. For the same compound, the “survival advantage over placebo” value in data set [2] (clinic studies (SHARP)) is listed as around 3 months.

Turning to ALLANHEELF, in [3], the “level of enrichment in biopanning” value was “highest level of enrichment”.

As to ALLANHEELFQT [ALL*], the “effect of unlabeled peptide on ALL*-Cy5.5 fluorescence intensity” value in [4] is “dose-dependent decrease”. In addition, the “concentration of unlabeled peptide giving significant decrease in ALL*-Cy5.5 binding” value in [4] (unlabeled peptide 0-500 μM) is at least 50 µM.

“QLE*-Cy5.5: scrambled control peptide QLELTFHANLEA (SEQ ID NO: 6) labeled with Cy5.5 via GGGSK linker (QLELTFHANLEAGGGSK-{Cy5.5}) [reference compound]”: the “fluorescence intensity from binding to cell surface” value in [5], in data set [6] and in data set [9] was “Minimal signal” in each case. The “target-to-background (T/B) ratio” value in [1] (2 hours post injection, mean±SD) is given as 1.12±0.19; in data set [10], 3.0±0.7. For the same compound, in [7], the “staining of xenograft sections” value was “No staining”. In [8], the “binding to cell surface” value was “minimal binding”. Also, the “fluorescent intensity at tumor” value in data set [11] (2 hours after i.v. injection, n=8) is reported as 16±4. The “uptake/staining in tumor on optical sections” value in [11] (horizontal and vertical planes) is “Minimal staining”. Besides, the “staining of normal mouse liver” value in data set [12] is “Minimal staining”.

Take “QLELTFHANLEA [QLE*, scrambled (control) peptide, unlabeled, reference compound]”: in data set [4], the “effect of unlabeled peptide on ALL*-Cy5.5 fluorescence intensity” value is “no change”.

“QRH*-Cy5.5: label printed in b35/b133 without definition; apparently a misprint for QLE*-Cy5.5 or ALL*-Cy5.5 (QRHKPREGGGSK; not fully specified (C-terminus); also: Cy5.5 label, site not given here, QRH* code without meaning)”: the “target-to-background (T/B) ratio” value in data set [10] is reported as 3.0±0.7.
